Assay results as given in patent US20020137929A1, “1 - (3-heterocyclylphenyl) isothiourea, -isourea, -guanidine and -amidine herbicidal agents” (Intellectual Property Department, BASF Aktiengesellschaft, priority 1998, published 2002).

How the values were obtained:
MOOVA (Monochoria) = assay: Preemergence weed control under flooded paddy conditions; type: in vivo, Monochoria vaginalis; conditions: rated 3-4 weeks after treatment
In short: (§1)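 Seeds or propagules sown in top 0.5 cm of silt loam soil, flooded 1.5 to 3 cm above surface throughout. Compound in 50/50 v/v aqueous/acetone pipetted into flood water at about 0.0313 to 0.500 kg/ha. Visual 0-9 rating versus control after three to four weeks in greenhouse.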

CYPIR (Rice Flatsedge) = assay: Postemergence weed control under flooded paddy conditions; type: in vivo, Cyperus iria; conditions: postemergence weeds
In short: (§2)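 Containers holding 3–5 cm weeds and rice at 1.5–2.5 leaves are flooded to 1.5–3 cm above soil. Compound in 50/50 v/v aqueous/acetone is then added directly to the water, about 0.0313–0.500 kg/ha. Plants are kept in the greenhouse and rated 0–9 visually at 3–4 weeks.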

ORYSAT (Rice, Tebonnet) = assay: Postemergence herbicidal evaluation; type: in vivo, Oryza sativa, (L.) Tebonnet; conditions: for ORYSAT herbicidal rating: postemergence
In short: (§3)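 Two-week seedlings sprayed postemergence at 40 psi; formulation: 1:1 acetone/water, 0.5% TWEEN 20; application ≈0.0156–0.500 kg/ha. Greenhouse grow-out, then 0–9 visual scoring at 4–5 weeks.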

AMBEL (Ragweed, Common) = assay: Postemergence herbicidal evaluation; type: in vivo, Ambrosia artemisifolia; conditions: for AMBEL herbicidal rating: postemergence
In short: as §3

ECHCG (Barnyardgrass) = assay: Postemergence herbicidal evaluation; type: in vivo, Echinochloa crus-galli; conditions: for ECHCG herbicidal rating: postemergence
In short: as §3

SETVI (Foxtail, Green) [1] = assay: Preemergence herbicidal evaluation; type: in vivo, Setaria viridis; conditions: rated 4-5 weeks after treatment; for SETVI rating: preemergence, 0-9 scale
In short: (§4)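 Scores (0–9) reflect visual comparison with control plants for stand, vigor, malformation, size and chlorosis. Compound was applied to the soil after sowing, before emergence, as an aqueous acetone spray (about 0.0156–0.500 kg/ha), and cups were kept in a greenhouse for 4–5 weeks.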

CASOB (Sicklepod) = assay: Preemergence herbicidal evaluation; type: in vivo, Cassia obtusifolia; conditions: rated 4-5 weeks after treatment; for CASOB rating: preemergence, 0-9 scale
In short: as §4

[2] = system: SAGPY (Arrowhead (Pygmaea)); assay: Preemergence weed control under flooded paddy conditions; type: in vivo, Sagittaria pygmaea; conditions: rated 3-4 weeks after treatment
In short: as §1

[3] = system: SAGPY (Arrowhead (Pygmaea)); assay: Postemergence weed control under flooded paddy conditions; type: in vivo, Sagittaria pygmaea; conditions: postemergence weeds
In short: as §2

SETVI (Foxtail, Green) [4] = assay: Postemergence herbicidal evaluation; type: in vivo, Setaria viridis; conditions: for SETVI herbicidal rating: postemergence
In short: as §3

[5] = system: GLXMAW (Soybean, Williams); assay: Postemergence herbicidal evaluation; type: in vivo, Glycine max, (L.) Merr. cv Williams; conditions: for GLXMAW herbicidal rating: postemergence
In short: as §3

ABUTH (Velvetleaf) [6] = assay: Postemergence herbicidal evaluation; type: in vivo, Abutilon theophrasti; conditions: for ABUTH herbicidal rating: postemergence
In short: as §3

[7] = system: TRZAWR (Wheat, Winter, cv Riband); assay: Postemergence herbicidal evaluation; type: in vivo, Triticum aestivum; conditions: for TRZAWR herbicidal rating: postemergence
In short: as §3

ABUTH (Velvetleaf) [8] = assay: Preemergence herbicidal evaluation; type: in vivo, Abutilon theophrasti; conditions: rated 4-5 weeks after treatment; for ABUTH rating: preemergence, 0-9 scale
In short: as §4

[9] = Rate 0.0313 kg/ha, rated 3 to 4 weeks after treatment
[10] = Rate 0.0625 kg/ha, rated 3 to 4 weeks after treatment
[11] = Rate 0.1250 kg/ha, rated 3 to 4 weeks after treatment
[12] = Rate 0.2500 kg/ha, rated 3 to 4 weeks after treatment
[13] = rate 0.0313 kg/ha, 3-4 weeks after treatment
[14] = rate 0.0625 kg/ha, 3-4 weeks after treatment
[15] = rate 0.1250 kg/ha, 3-4 weeks after treatment
[16] = rate 0.2500 kg/ha, 3-4 weeks after treatment

C=CCN1C(=O)C(CC(=O)NC)SC1=Nc1cc(-n2c(=O)cc(C(F)(F)F)n(C)c2=O)c(F)cc1Cl (centres unmarked) [Compound 84, 3-Allyl-2-{{2-chloro-5-[3,6-dihydro-3-methyl-2,6-dioxo-4-(trifluoromethyl)-1(2H)-pyrimidinyl]-4-fluorophenyl}imino}-N-methyl-4-oxo-5-thiazolidineacetamide]
1.0: ORYSAT herbicidal rating (ORYSAT (Rice, Tebonnet); rate 0.0313 kg/ha)
4.0: AMBEL herbicidal rating (AMBEL (Ragweed, Common); rate 0.0156 kg/ha) | GLXMAW herbicidal rating ([5]; rate 0.0156 kg/ha)
2.0: SAGPY herbicidal effect rating ([2]; 0.0313 kg/ha) | Herbicidal rating SAGPY [3, 9] | SETVI herbicidal rating (SETVI (Foxtail, Green) [4]; rate 0.1250 kg/ha) | ABUTH rating (ABUTH (Velvetleaf) [8]; 0.0156 kg/ha) | ABUTH rating (ABUTH (Velvetleaf) [8]; 0.0313 kg/ha)
4.5: GLXMAW herbicidal rating ([5]; rate 0.0313 kg/ha) | GLXMAW herbicidal rating ([5]; rate 0.0625 kg/ha) | TRZAWR herbicidal rating ([7]; rate 0.0625 kg/ha)
3.5: TRZAWR herbicidal rating ([7]; rate 0.0313 kg/ha)
3.0: Herbicidal rating CYPIR (CYPIR (Rice Flatsedge); [9]) | ORYSAT herbicidal rating (ORYSAT (Rice, Tebonnet); rate 0.1250 kg/ha) | SETVI rating (SETVI (Foxtail, Green) [1]; 0.1250 kg/ha) | TRZAWR herbicidal rating ([7]; rate 0.0156 kg/ha)
9.0: MOOVA herbicidal effect rating (MOOVA (Monochoria); 0.0313 kg/ha) | MOOVA herbicidal effect rating (MOOVA (Monochoria); 0.0625 kg/ha) | MOOVA herbicidal effect rating (MOOVA (Monochoria); 0.1250 kg/ha) | MOOVA herbicidal effect rating (MOOVA (Monochoria); 0.2500 kg/ha) | Herbicidal rating CYPIR (CYPIR (Rice Flatsedge); [11]) | Herbicidal rating CYPIR (CYPIR (Rice Flatsedge); [12]) | AMBEL herbicidal rating (AMBEL (Ragweed, Common); rate 0.0313 kg/ha) | AMBEL herbicidal rating (AMBEL (Ragweed, Common); rate 0.0625 kg/ha) | AMBEL herbicidal rating (AMBEL (Ragweed, Common); rate 0.1250 kg/ha) | SETVI rating (SETVI (Foxtail, Green) [1]; 0.2500 kg/ha) | SETVI rating (SETVI (Foxtail, Green) [1]; 0.5000 kg/ha) | CASOB rating (CASOB (Sicklepod); 0.5000 kg/ha) | SAGPY herbicidal effect rating ([2]; 0.2500 kg/ha) | Herbicidal rating SAGPY [3, 12] | ABUTH herbicidal rating (ABUTH (Velvetleaf) [6]; rate 0.0156 kg/ha) | ABUTH herbicidal rating (ABUTH (Velvetleaf) [6]; rate 0.0313 kg/ha) | ABUTH herbicidal rating (ABUTH (Velvetleaf) [6]; rate 0.0625 kg/ha) | ABUTH herbicidal rating (ABUTH (Velvetleaf) [6]; rate 0.1250 kg/ha) | ABUTH rating (ABUTH (Velvetleaf) [8]; 0.1250 kg/ha) | ABUTH rating (ABUTH (Velvetleaf) [8]; 0.2500 kg/ha) | ABUTH rating (ABUTH (Velvetleaf) [8]; 0.5000 kg/ha)
6.0: SAGPY herbicidal effect rating ([2]; 0.0625 kg/ha) | Herbicidal rating SAGPY [3, 10]
0.0: ECHCG herbicidal rating (ECHCG (Barnyardgrass); rate 0.0156 kg/ha) | ECHCG herbicidal rating (ECHCG (Barnyardgrass); rate 0.0313 kg/ha) | ECHCG herbicidal rating (ECHCG (Barnyardgrass); rate 0.0625 kg/ha) | ECHCG herbicidal rating (ECHCG (Barnyardgrass); rate 0.1250 kg/ha) | SETVI rating (SETVI (Foxtail, Green) [1]; 0.0156 kg/ha) | SETVI rating (SETVI (Foxtail, Green) [1]; 0.0313 kg/ha) | SETVI rating (SETVI (Foxtail, Green) [1]; 0.0625 kg/ha) | CASOB rating (CASOB (Sicklepod); 0.0156 kg/ha) | CASOB rating (CASOB (Sicklepod); 0.0313 kg/ha) | CASOB rating (CASOB (Sicklepod); 0.0625 kg/ha) | CASOB rating (CASOB (Sicklepod); 0.1250 kg/ha) | CASOB rating (CASOB (Sicklepod); 0.2500 kg/ha) | SETVI herbicidal rating (SETVI (Foxtail, Green) [4]; rate 0.0156 kg/ha) | SETVI herbicidal rating (SETVI (Foxtail, Green) [4]; rate 0.0313 kg/ha) | SETVI herbicidal rating (SETVI (Foxtail, Green) [4]; rate 0.0625 kg/ha)
8.5: GLXMAW herbicidal rating ([5]; rate 0.1250 kg/ha)
5.0: TRZAWR herbicidal rating ([7]; rate 0.1250 kg/ha)
1.5: ORYSAT herbicidal rating (ORYSAT (Rice, Tebonnet); rate 0.0625 kg/ha)
7.0: Herbicidal rating CYPIR (CYPIR (Rice Flatsedge); [10]) | SAGPY herbicidal effect rating ([2]; 0.1250 kg/ha) | Herbicidal rating SAGPY [3, 11] | ABUTH rating (ABUTH (Velvetleaf) [8]; 0.0625 kg/ha)
0.5: ORYSAT herbicidal rating (ORYSAT (Rice, Tebonnet); rate 0.0156 kg/ha)

Cn1c(C(F)(F)F)cc(=O)n(-c2cc(N=C3NC(=O)CS3)c(Cl)cc2F)c1=O [Compound 39, 3-{4-Chloro-2-fluoro-5-[(4-oxo-2-thiazolidinylidene)amino]phenyl}-1-methyl-6-(trifluoromethyl)-2,4(1H,3H)-pyrimidinedione]
3.0: Postemergence herbicidal rating AMBEL (AMBEL (Ragweed, Common); Rate 0.0315 kg/ha)
5.0: Postemergence herbicidal rating GLXMAW ([5]; Rate 0.0315 kg/ha) | Postemergence herbicidal rating GLXMAW ([5]; Rate 0.0630 kg/ha)
2.0: Postemergence herbicidal rating ORYSAT (ORYSAT (Rice, Tebonnet); Rate 0.0630 kg/ha) | Preemergence herbicidal rating SETVI (SETVI (Foxtail, Green) [1]; rate 0.2500 kg/ha) | Preemergence herbicidal rating CASOB (CASOB (Sicklepod); rate 0.1250 kg/ha) | Postemergence herbicidal rating TRZAWR ([7]; Rate 0.0158 kg/ha)
0.0: Herbicidal rating CYPIR (CYPIR (Rice Flatsedge); [13]) | Herbicidal rating CYPIR (CYPIR (Rice Flatsedge); [14]) | Herbicidal rating CYPIR (CYPIR (Rice Flatsedge); [15]) | Herbicidal rating CYPIR (CYPIR (Rice Flatsedge); [16]) | Postemergence herbicidal rating AMBEL (AMBEL (Ragweed, Common); Rate 0.0158 kg/ha) | Postemergence herbicidal rating ECHCG (ECHCG (Barnyardgrass); Rate 0.0158 kg/ha) | Postemergence herbicidal rating ECHCG (ECHCG (Barnyardgrass); Rate 0.0315 kg/ha) | Postemergence herbicidal rating ECHCG (ECHCG (Barnyardgrass); Rate 0.0630 kg/ha) | Preemergence herbicidal rating SETVI (SETVI (Foxtail, Green) [1]; rate 0.0156 kg/ha) | Preemergence herbicidal rating SETVI (SETVI (Foxtail, Green) [1]; rate 0.0313 kg/ha) | Preemergence herbicidal rating SETVI (SETVI (Foxtail, Green) [1]; rate 0.0625 kg/ha) | Preemergence herbicidal rating SETVI (SETVI (Foxtail, Green) [1]; rate 0.1250 kg/ha) | Preemergence herbicidal rating CASOB (CASOB (Sicklepod); rate 0.0313 kg/ha) | Preemergence herbicidal rating CASOB (CASOB (Sicklepod); rate 0.0625 kg/ha) | Herbicidal rating SAGPY ([2]; 0.0313 kg/ha) | Herbicidal rating SAGPY ([2]; 0.0625 kg/ha) | Herbicidal rating SAGPY ([2]; 0.1250 kg/ha) | Herbicidal rating SAGPY [3, 13] | Herbicidal rating SAGPY [3, 14] | Herbicidal rating SAGPY [3, 15] | Postemergence herbicidal rating SETVI (SETVI (Foxtail, Green) [4]; Rate 0.0158 kg/ha) | Postemergence herbicidal rating SETVI (SETVI (Foxtail, Green) [4]; Rate 0.0315 kg/ha) | Postemergence herbicidal rating SETVI (SETVI (Foxtail, Green) [4]; Rate 0.0630 kg/ha) | Postemergence herbicidal rating ABUTH (ABUTH (Velvetleaf) [6]; Rate 0.0158 kg/ha) | Preemergence herbicidal rating ABUTH (ABUTH (Velvetleaf) [8]; rate 0.0156 kg/ha) | Preemergence herbicidal rating ABUTH (ABUTH (Velvetleaf) [8]; rate 0.0313 kg/ha)
7.0: Postemergence herbicidal rating AMBEL (AMBEL (Ragweed, Common); Rate 0.0630 kg/ha)
2.5: Postemergence herbicidal rating TRZAWR ([7]; Rate 0.0630 kg/ha)
4.0: Herbicidal rating SAGPY ([2]; 0.2500 kg/ha) | Herbicidal rating SAGPY [3, 16]
1.5: Postemergence herbicidal rating ORYSAT (ORYSAT (Rice, Tebonnet); Rate 0.0158 kg/ha) | Postemergence herbicidal rating ORYSAT (ORYSAT (Rice, Tebonnet); Rate 0.0315 kg/ha) | Postemergence herbicidal rating TRZAWR ([7]; Rate 0.0315 kg/ha)
4.5: Postemergence herbicidal rating GLXMAW ([5]; Rate 0.0158 kg/ha)
1.0: Preemergence herbicidal rating CASOB (CASOB (Sicklepod); rate 0.2500 kg/ha) | Preemergence herbicidal rating ABUTH (ABUTH (Velvetleaf) [8]; rate 0.0625 kg/ha)
9.0: Herbicidal rating MOOVA (MOOVA (Monochoria); 0.0313 kg/ha) | Herbicidal rating MOOVA (MOOVA (Monochoria); 0.0625 kg/ha) | Herbicidal rating MOOVA (MOOVA (Monochoria); 0.1250 kg/ha) | Herbicidal rating MOOVA (MOOVA (Monochoria); 0.2500 kg/ha) | Postemergence herbicidal rating ABUTH (ABUTH (Velvetleaf) [6]; Rate 0.0315 kg/ha) | Postemergence herbicidal rating ABUTH (ABUTH (Velvetleaf) [6]; Rate 0.0630 kg/ha) | Preemergence herbicidal rating ABUTH (ABUTH (Velvetleaf) [8]; rate 0.1250 kg/ha) | Preemergence herbicidal rating ABUTH (ABUTH (Velvetleaf) [8]; rate 0.2500 kg/ha)
